Assay [1] has as its target T1, ΔF508-CFTR (Homo sapiens, UniProt P13569, DEL508-508).
T1 construct: host or cells: CFBE41o-, doxycycline-inducible
As to the kind of experiment: CFTR cell surface levels using HRP-tagged ΔF508-CFTR expressing CFBE cells, in the presence of a co-corrector. It counts as cell-based. The following applies: HRP-tagged ΔF508-CFTR expressing CFBE cells, in the presence of 3 μM co-corrector; for EC50: read-out: EC50. The gist of the method:
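Cells were seeded with 0.5 μg/mL doxycycline and held 68 h at 37 °C. Test compounds plus 3 μM co-corrector (final 0.1% DMSO) were then added for 20 h at 33 °C. Washed cells received HRP substrate, and luminescence was normalized between DMSO and 3 μM co-corrector controls.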

For assay [2], the target named is T1, ΔF508-CFTR. As to the kind of experiment: CFTR cell surface levels using HRP-tagged ΔF508-CFTR expressing CFBE cells, intrinsic corrector capacity. It counts as cell-based. The following applies: for EC50: read-out: EC50. In outline: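 Here the cells express ΔF508-CFTR with horseradish peroxidase inserted in extracellular loop 4, so only rescued channel at the surface gives luminescent signal. Compounds act on their own, 20 h at the reduced temperature of 33 °C; values are percent activity relative to DMSO and a 3 μM corrector.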

The mark [3] stands for this setting: HRP-tagged ΔF508-CFTR expressing CFBE cells, intrinsic corrector capacity (no co-corrector), 33° C., 20 hours.
Where [4] appears, read: HRP-tagged ΔF508-CFTR CFBE41o- cells, compounds alone (intrinsic corrector capacity), 20 hours at 33° C., positive control 3 μM corrector.
The mark [5] stands for this setting: HRP-tagged ΔF508-CFTR CFBE41o- cells, compounds alone (intrinsic corrector capacity), 20 hours at 33° C.
[6] abbreviates: HRP-tagged ΔF508-CFTR CFBE cells, compound alone (intrinsic corrector capacity), 20 hours at 33° C.

Molecules are shown by their SMILES.

T1 sequence (P13569 with tags, fused parts or gaps DEL508-508): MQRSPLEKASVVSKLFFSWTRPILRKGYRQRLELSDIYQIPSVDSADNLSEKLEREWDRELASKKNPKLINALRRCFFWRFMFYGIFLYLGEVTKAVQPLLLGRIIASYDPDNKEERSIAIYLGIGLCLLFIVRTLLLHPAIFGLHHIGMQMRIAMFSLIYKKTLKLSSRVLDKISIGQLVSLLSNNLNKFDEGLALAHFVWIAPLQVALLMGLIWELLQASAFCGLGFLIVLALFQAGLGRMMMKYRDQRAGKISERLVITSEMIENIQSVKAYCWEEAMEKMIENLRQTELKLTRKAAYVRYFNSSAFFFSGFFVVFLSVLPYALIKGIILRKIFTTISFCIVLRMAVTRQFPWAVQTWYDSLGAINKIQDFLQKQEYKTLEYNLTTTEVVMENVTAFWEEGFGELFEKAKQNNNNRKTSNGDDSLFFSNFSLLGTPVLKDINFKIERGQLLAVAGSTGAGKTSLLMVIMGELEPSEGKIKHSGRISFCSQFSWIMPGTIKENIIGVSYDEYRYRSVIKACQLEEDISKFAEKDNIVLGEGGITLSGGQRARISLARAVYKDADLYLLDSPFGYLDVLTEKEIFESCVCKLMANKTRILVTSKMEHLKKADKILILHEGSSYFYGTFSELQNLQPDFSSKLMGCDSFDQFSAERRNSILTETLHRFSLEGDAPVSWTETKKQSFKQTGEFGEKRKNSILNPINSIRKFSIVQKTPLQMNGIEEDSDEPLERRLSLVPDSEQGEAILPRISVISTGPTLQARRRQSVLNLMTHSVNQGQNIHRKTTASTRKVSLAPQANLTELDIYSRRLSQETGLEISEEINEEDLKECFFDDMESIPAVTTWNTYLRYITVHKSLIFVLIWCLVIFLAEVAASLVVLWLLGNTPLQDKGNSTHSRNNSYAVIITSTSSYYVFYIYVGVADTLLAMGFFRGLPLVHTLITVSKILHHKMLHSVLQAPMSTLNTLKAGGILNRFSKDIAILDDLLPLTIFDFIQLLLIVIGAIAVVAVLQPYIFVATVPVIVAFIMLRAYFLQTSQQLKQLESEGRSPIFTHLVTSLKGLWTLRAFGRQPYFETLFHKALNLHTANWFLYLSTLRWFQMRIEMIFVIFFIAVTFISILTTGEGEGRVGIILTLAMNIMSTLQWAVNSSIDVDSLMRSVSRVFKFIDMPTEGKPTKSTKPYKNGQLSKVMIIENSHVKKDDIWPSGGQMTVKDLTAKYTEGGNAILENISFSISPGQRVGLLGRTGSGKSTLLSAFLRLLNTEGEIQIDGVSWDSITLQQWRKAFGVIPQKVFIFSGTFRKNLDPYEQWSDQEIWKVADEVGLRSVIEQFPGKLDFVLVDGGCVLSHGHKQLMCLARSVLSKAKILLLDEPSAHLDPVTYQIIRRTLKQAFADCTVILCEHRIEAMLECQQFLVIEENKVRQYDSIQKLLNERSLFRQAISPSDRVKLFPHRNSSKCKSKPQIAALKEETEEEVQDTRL

As to `CN1CCC2(CC1)CCN(c1cc(C(=O)O)nc3c1c(C1CCC1)nn3-c1ccccc1)CC2` [compound 699, 3-cyclobutyl-4-(9-methyl-3,9-diazaspiro[5.5]undecan-3-yl)-1-phenyl-1H-pyrazolo[3,4-b]pyridine-6-carboxylic acid], the “% Activation” value stood at 432% on ΔF508-CFTR [1] and 247.63% at ΔF508-CFTR [2] (setting [3]). Also, the values for the EC50 at ΔF508-CFTR [1] and at ΔF508-CFTR [2] (setting [3]) were 169 nM and 622 nM, respectively.

In the case of `Cc1nn(-c2ccccc2)c2nc(C(=O)O)cc(N3CCCCC3)c12` [compound 123, 3-methyl-1-phenyl-4-(piperidin-1-yl)-1H-pyrazolo[3,4-b]pyridine-6-carboxylic acid], the “% Activation” value on ΔF508-CFTR [1] turned out to be 267.95%; on ΔF508-CFTR [2] (setting [4]) it was 107.95%. In addition, the EC50 (in general, the concentration giving half of the maximal effect) amounted to 2690 nM at ΔF508-CFTR [1] and 3280 nM at ΔF508-CFTR [2] (setting [5]).

`CC(C)c1nn(-c2ccc(F)cc2)c2nc(C(=O)O)cc(N3CCC(CN4CCCCC4)CC3)c12` [compound 790, 1-(4-fluorophenyl)-4-{4-[(piperidin-1-yl)methyl]piperidin-1-yl}-3-(propan-2-yl)-1H-pyrazolo[3,4-b]pyridine-6-carboxylic acid]: the “% Activation” value on ΔF508-CFTR [1] was found to be 419.1%; at ΔF508-CFTR [2] (setting [3]), 193.7%. Further, the half-maximal effective concentration (EC50) was 181 nM on ΔF508-CFTR [1] and 294 nM at ΔF508-CFTR [2] (setting [3]).

Turning to `O=C(O)c1cc(N2CCC(N3CCOCC3)CC2)c2c(C3CCC3)nn(-c3ccc(F)cc3)c2n1` [compound 679, 3-cyclobutyl-1-(4-fluorophenyl)-4-[4-(morpholin-4-yl)piperidin-1-yl]-1H-pyrazolo[3,4-b]pyridine-6-carboxylic acid], at ΔF508-CFTR [1], the “% Activation” value is recorded as 503.6% and the EC50 was determined as 299 nM. Also, at ΔF508-CFTR [2] (setting [3]), the “% Activation” value was 279.5% and the EC50 amounted to 370 nM.

`CC(C)c1nn(-c2cc(F)cc(F)c2)c2nc(C(=O)O)cc(-c3ccc(N4CCOCC4)cc3)c12` [compound 268, 1-(3,5-difluorophenyl)-4-[4-(morpholin-4-yl)phenyl]-3-(propan-2-yl)-1H-pyrazolo[3,4-b]pyridine-6-carboxylic acid]: the “% Activation” value on ΔF508-CFTR [1] was determined as 425.68%; on ΔF508-CFTR [2] (setting [4]), 251.82%. The values for the concentration giving a half-maximal response (EC50) on ΔF508-CFTR [1] and at ΔF508-CFTR [2] (setting [5]) were 394 nM and 616 nM, respectively.

For `CO[C@@H]1CCN(CC2CCN(c3cc(C(=O)O)nc4c3c(C3CCC3)nn4-c3ccccc3)CC2)C1` [compound 803, 3-cyclobutyl-4-(4-{[(3R)-3-methoxypyrrolidin-1-yl]methyl}piperidin-1-yl)-1-phenyl-1H-pyrazolo[3,4-b]pyridine-6-carboxylic acid], at ΔF508-CFTR [1], the “% Activation” value is recorded as 436% and the half-maximal effective concentration (EC50) was determined as 672 nM. Further, on ΔF508-CFTR [2] (setting [3]), the “% Activation” value is recorded as 229.35% and the EC50 was found to be 1020 nM.

For the compound `CC(C)c1nn(-c2ccc(F)cc2)c2nc(C(=O)O)cc(N3CCC(C(C)(C)O)CC3)c12` [compound 656, 1-(4-fluorophenyl)-4-[4-(2-hydroxypropan-2-yl)piperidin-1-yl]-3-(propan-2-yl)-1H-pyrazolo[3,4-b]pyridine-6-carboxylic acid], on ΔF508-CFTR [1], the “% Activation” value is reported as 415.7% and the EC50 was determined as 191 nM. Further, on ΔF508-CFTR [2] (setting [3]), the “% Activation” value turned out to be 287.7% and the EC50 is 437 nM.

With `CC(C)Oc1cccc(-n2nc(C3CCC3)c3c(N4CCC(N5CCOCC5)CC4)cc(C(=O)O)nc32)n1` [compound 924, 3-cyclobutyl-4-[4-(morpholin-4-yl)piperidin-1-yl]-1-{6-[(propan-2-yl)oxy]pyridin-2-yl}-1H-pyrazolo[3,4-b]pyridine-6-carboxylic acid], at ΔF508-CFTR [1], the “% Activation” value is 609.82% and the EC50 worked out at 136 nM. Moreover, at ΔF508-CFTR [2] (setting [6]), the “% Activation” value is on record as 374.45% and the 50% effective concentration (EC50) worked out at 420 nM.

In the case of `CC(C)c1nn(-c2cccc(N3CCOCC3)c2)c2nc(C(=O)O)cc(-c3cnc(N4CCC(C#N)CC4)nc3)c12` [compound 204, 4-[2-(4-cyanopiperidin-1-yl)pyrimidin-5-yl]-1-[3-(morpholin-4-yl)phenyl]-3-(propan-2-yl)-1H-pyrazolo[3,4-b]pyridine-6-carboxylic acid], the “% Activation” value on ΔF508-CFTR [1] was found to be 589.7%; on ΔF508-CFTR [2] (setting [4]) it was 402.1%. Also, the values for the EC50 at ΔF508-CFTR [1] and on ΔF508-CFTR [2] (setting [5]) were 844 nM and 1110 nM, respectively.

Turning to `CN(C)C[C@@H](F)C1CCN(c2cc(C(=O)O)nc3c2c(C2CCC2)nn3-c2ccccc2)CC1` [compound 456, 3-cyclobutyl-4-{4-[(1S)-2-(dimethylamino)-1-fluoroethyl]piperidin-1-yl}-1-phenyl-1H-pyrazolo[3,4-b]pyridine-6-carboxylic acid], on ΔF508-CFTR [1], the “% Activation” value was found to be 414.5% and the EC50 was 335 nM. At ΔF508-CFTR [2] (setting [3]), the “% Activation” value is listed as 253.65% and the concentration for a half-maximal effect (EC50) is 845 nM.

Take `CO[C@H]1CCC[C@@H](n2nc(C(C)C)c3c(-c4ccc(N5CCOCC5)cc4)cc(C(=O)O)nc32)C1` [compound 205, 1-[(1R,3S)-3-methoxycyclohexyl]-4-[4-(morpholin-4-yl)phenyl]-3-(propan-2-yl)-1H-pyrazolo[3,4-b]pyridine-6-carboxylic acid]: the results for the “% Activation” value on ΔF508-CFTR [1] and on ΔF508-CFTR [2] (setting [4]) were 261.5% and 109%, respectively. Further, the EC50 at ΔF508-CFTR [1] was 819 nM; on ΔF508-CFTR [2] (setting [5]) it was 1110 nM.

For `CC(C)c1nn(-c2ccc(F)cc2)c2nc(C(=O)O)cc(N3CCC(C(C)N4CCCC4)CC3)c12` (stereo not shown) [compound 789, 1-(4-fluorophenyl)-3-(propan-2-yl)-4-{4-[1-(pyrrolidin-1-yl)ethyl]piperidin-1-yl}-1H-pyrazolo[3,4-b]pyridine-6-carboxylic acid], the “% Activation” value on ΔF508-CFTR [1] stood at 460.95%; at ΔF508-CFTR [2] (setting [3]) it was 257.05%. Besides, the EC50 is 918 nM on ΔF508-CFTR [1] and 477 nM at ΔF508-CFTR [2] (setting [3]).

Regarding `CC(C1CCN(c2cc(C(=O)O)nc3c2c(C2CCC2)nn3-c2ccccc2)CC1)N1CCOCC1` (stereo not shown) [compound 683, 3-cyclobutyl-4-{4-[1-(morpholin-4-yl)ethyl]piperidin-1-yl}-1-phenyl-1H-pyrazolo[3,4-b]pyridine-6-carboxylic acid], the “% Activation” value on ΔF508-CFTR [1] is reported as 600.53%; on ΔF508-CFTR [2] (setting [3]) it was 395.1%. The EC50 stood at 60.7 nM at ΔF508-CFTR [1] and 141 nM at ΔF508-CFTR [2] (setting [3]).

Regarding `CC(C)c1nn(C2CCCCC2)c2nc(C(=O)O)cc(-c3ccc(N(C)C4CCOCC4)nc3)c12` [compound 169, 1-cyclohexyl-4-{6-[methyl(oxan-4-yl)amino]pyridin-3-yl}-3-(propan-2-yl)-1H-pyrazolo[3,4-b]pyridine-6-carboxylic acid], the “% Activation” value at ΔF508-CFTR [1] is 436.5%; at ΔF508-CFTR [2] (setting [4]) it was 217.88%. Also, the EC50 on ΔF508-CFTR [1] was 302 nM; at ΔF508-CFTR [2] (setting [5]), 448 nM.

On to `CC(C)c1nn(-c2cccc(N3CCOCC3)n2)c2nc(C(=O)O)cc(-c3ccc(N4CCOCC4)cc3)c12` [compound 244, 4-[4-(morpholin-4-yl)phenyl]-1-[6-(morpholin-4-yl)pyridin-2-yl]-3-(propan-2-yl)-1H-pyrazolo[3,4-b]pyridine-6-carboxylic acid], for which the figures for the “% Activation” value on ΔF508-CFTR [1] and on ΔF508-CFTR [2] (setting [4]) were 514.48% and 320.17%, respectively. Moreover, the half-maximal effective concentration (EC50) on ΔF508-CFTR [1] was 458 nM; on ΔF508-CFTR [2] (setting [5]) it was 473 nM.

Take `O=C(O)c1cc(N2CCC(CN3CCCC3)CC2)c2c(C3CCC3)nn(-c3ccccc3)c2n1` [compound 557, 3-cyclobutyl-1-phenyl-4-{4-[(pyrrolidin-1-yl)methyl]piperidin-1-yl}-1H-pyrazolo[3,4-b]pyridine-6-carboxylic acid]: on ΔF508-CFTR [1], the “% Activation” value turned out to be 418.2% and the concentration giving a half-maximal response (EC50) is 200 nM. On ΔF508-CFTR [2] (setting [3]), the “% Activation” value turned out to be 221.7% and the half-maximal effective concentration (EC50) was determined as 444 nM.

Consider `O=C(O)c1cc(N2CCC(N3CCN(C4CC4)CC3)CC2)c2c(C3CCC3)nn(-c3ccc(F)cc3)c2n1` [compound 886, 3-cyclobutyl-4-[4-(4-cyclopropylpiperazin-1-yl)piperidin-1-yl]-1-(4-fluorophenyl)-1H-pyrazolo[3,4-b]pyridine-6-carboxylic acid], for which the “% Activation” value at ΔF508-CFTR [1] came out at 551.77%; on ΔF508-CFTR [2] (setting [3]), 236.05%. The values for the concentration for a half-maximal effect (EC50) on ΔF508-CFTR [1] and at ΔF508-CFTR [2] (setting [3]) were 511 nM and 467 nM, respectively.

As to `O=C(O)c1cc(N2CCC3(CC2)CCN(C2CCC2)CC3)c2c(C3CCC3)nn(-c3ccc(F)cc3)c2n1` [compound 894, 3-cyclobutyl-4-(9-cyclobutyl-3,9-diazaspiro[5.5]undecan-3-yl)-1-(4-fluorophenyl)-1H-pyrazolo[3,4-b]pyridine-6-carboxylic acid], on ΔF508-CFTR [1], the “% Activation” value was 371.3% and the EC50 stood at 218 nM. Moreover, on ΔF508-CFTR [2] (setting [3]), the “% Activation” value is on record as 164% and the concentration for a half-maximal effect (EC50) is 304 nM.

As for `CC(C)c1nn(-c2cccc(N3CCOCC3)c2)c2nc(C(=O)O)cc(-c3ccc(N(C)C)nc3)c12` [compound 89, 4-[6-(dimethylamino)pyridin-3-yl]-1-[3-(morpholin-4-yl)phenyl]-3-(propan-2-yl)-1H-pyrazolo[3,4-b]pyridine-6-carboxylic acid], the entries for the “% Activation” value on ΔF508-CFTR [1] and on ΔF508-CFTR [2] (setting [4]) were 482.05% and 310.15%, respectively. The EC50 on ΔF508-CFTR [1] was 1240 nM; at ΔF508-CFTR [2] (setting [5]), 2530 nM.

For the origin of these results see patent US9796711B2, “Substituted pyrazolo[3,4-b]pyridin-6-carboxylic acids and method of use” (AbbVie S.àr.l., priority 2015, dated 2017).
